Measured values taken from PubChem BioAssay AID2060627 (Molecular Pharmacology Branch, DTP, NCI, 2025).

System: 156681-154-R-J1-PDC complex spheroid viability
Experiment: Anticancer human tumor 156681-154-R-J1-PDC patient-derived melanoma cell line growth inhibition [CLK]
Conditions: for IC50: curve of first compound; for viability, T/C: stronger effect = lower value
How it was run: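 Multi-cell-type spheroids combined patient-derived tumor cells with HUVEC endothelial cells and human mesenchymal stem cells. Paired agents were dosed in half-log steps down from about clinical Cmax, or from 10 microM where Cmax was unknown.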

[1] = second compound 0.0316 µM, first compound 0.0316 µM
[2] = second compound 0.0316 µM, first compound 0.1 µM
[3] = second compound 0.0316 µM, first compound 0.316 µM
[4] = second compound 0.0316 µM, first compound 1 µM
[5] = second compound 0.0316 µM, first compound 3.16 µM
[6] = second compound 0.0316 µM, first compound 10 µM
[7] = second compound 0.1 µM, first compound 0.0316 µM
[8] = second compound 0.1 µM, first compound 0.1 µM
[9] = second compound 0.1 µM, first compound 0.316 µM
[10] = second compound 0.1 µM, first compound 1 µM
[11] = second compound 0.1 µM, first compound 3.16 µM
[12] = second compound 0.1 µM, first compound 10 µM
[13] = second compound 0.316 µM, first compound 0.0316 µM
[14] = second compound 0.316 µM, first compound 0.1 µM
[15] = second compound 0.316 µM, first compound 0.316 µM
[16] = second compound 0.316 µM, first compound 1 µM
[17] = second compound 0.316 µM, first compound 3.16 µM
[18] = second compound 0.316 µM, first compound 10 µM
[19] = second compound 1 µM, first compound 0.0316 µM
[20] = second compound 1 µM, first compound 0.1 µM
[21] = second compound 1 µM, first compound 0.316 µM
[22] = second compound 1 µM, first compound 1 µM
[23] = second compound 1 µM, first compound 3.16 µM
[24] = second compound 1 µM, first compound 10 µM
[25] = second compound 3.16 µM, first compound 0.0316 µM
[26] = second compound 3.16 µM, first compound 0.1 µM
[27] = second compound 3.16 µM, first compound 0.316 µM
[28] = second compound 3.16 µM, first compound 1 µM
[29] = second compound 3.16 µM, first compound 3.16 µM
[30] = second compound 3.16 µM, first compound 10 µM
[31] = second compound 10 µM, first compound 0.0316 µM
[32] = second compound 10 µM, first compound 0.1 µM
[33] = second compound 10 µM, first compound 0.316 µM
[34] = second compound 10 µM, first compound 1 µM
[35] = second compound 10 µM, first compound 3.16 µM
[36] = second compound 10 µM, first compound 10 µM
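Further: spheroids exposed to the agents for seven days.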
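Wherever viability, T/C is given: 100% = DMSO vehicle control viability.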

In the case of CC1(C)CCC(CN2CCN(c3ccc(C(=O)NS(=O)(=O)c4ccc(NCC5CCOCC5)c([N+](=O)[O-])c4)c(Oc4cnc5[nH]ccc5c4)c3)CC2)=C(c2ccc(Cl)cc2)C1 + CNC(=O)c1ccc(Nc2nc(OC3CCCC3)c3c(-c4ccc5nc(C)oc5c4)c[nH]c3n2)c(OC)c1, the IC50 (second compound 0.0316 µM) is reported as 5040 nM, the IC50 (second compound 0.1 µM) is reported as 4190 nM and the IC50 (second compound 0.316 µM) is reported as 3250 nM. For the same compound, the IC50 (second compound 1 µM) was 1860 nM, the IC50 (second compound 3.16 µM) was under 31.6 nM and the IC50 (second compound 10 µM) was under 31.6 nM. For the same compound, the viability, T/C [1] was 92.9%, the viability, T/C [2] was 101% and the viability, T/C [3] was 103%. It also gave a viability, T/C [4] of 96.8%, a viability, T/C [5] of 83% and a viability, T/C [6] of 1.52%. It also gave a viability, T/C [7] of 66.6%, a viability, T/C [8] of 80% and a viability, T/C [9] of 82%. It also gave a viability, T/C [10] of 70.4%, a viability, T/C [11] of 65.8% and a viability, T/C [12] of 0.92%. The viability, T/C [13] was 67.1%, the viability, T/C [14] was 72.9% and the viability, T/C [15] was 65.2%. The viability, T/C [16] was 74.1%, the viability, T/C [17] was 51.2% and the viability, T/C [18] was 0.88%. For the same compound, the viability, T/C [19] was 59.7%, the viability, T/C [20] was 62.7% and the viability, T/C [21] was 46.6%. For the same compound, the viability, T/C [22] was 57%, the viability, T/C [23] was 44.8% and the viability, T/C [24] was 2.29%. The viability, T/C [25] was 42.6%, the viability, T/C [26] was 37.8% and the viability, T/C [27] was 36.2%. For the same compound, the viability, T/C [28] was 50.4%, the viability, T/C [29] was 32.1% and the viability, T/C [30] was 1.28%. For the same compound, the viability, T/C [31] was 46.6%, the viability, T/C [32] was 34.7% and the viability, T/C [33] was 39.9%. The viability, T/C [34] was 41.4%, the viability, T/C [35] was 30.2% and the viability, T/C [36] was 0.58%.

In the case of CC1COCCN1c1cc(C2(S(C)(=N)=O)CC2)nc(-c2ccnc3[nH]ccc23)n1 (stereo unspecified) + CNC(=O)c1ccc(Nc2nc(OC3CCCC3)c3c(-c4ccc5nc(C)oc5c4)c[nH]c3n2)c(OC)c1, the IC50 (second compound 0.0316 µM) is reported as 1420 nM, the IC50 (second compound 0.1 µM) is reported as 846 nM and the IC50 (second compound 0.316 µM) is reported as 757 nM. It also gave an IC50 (second compound 1 µM) of 600 nM, an IC50 (second compound 3.16 µM) of 166 nM and an IC50 (second compound 10 µM) of 43 nM. For the same compound, the viability, T/C [1] was 102%, the viability, T/C [2] was 110% and the viability, T/C [3] was 86.5%. The viability, T/C [4] was 61%, the viability, T/C [5] was 27.7% and the viability, T/C [6] was 14.3%. It also gave a viability, T/C [7] of 60%, a viability, T/C [8] of 76.3% and a viability, T/C [9] of 71.9%. The viability, T/C [10] was 45.1%, the viability, T/C [11] was 23.3% and the viability, T/C [12] was 13.1%. The viability, T/C [13] was 68.1%, the viability, T/C [14] was 70.3% and the viability, T/C [15] was 66.6%. For the same compound, the viability, T/C [16] was 44.2%, the viability, T/C [17] was 24.8% and the viability, T/C [18] was 17.8%. It also gave a viability, T/C [19] of 63.4%, a viability, T/C [20] of 55.5% and a viability, T/C [21] of 54.7%. It also gave a viability, T/C [22] of 45.4%, a viability, T/C [23] of 16% and a viability, T/C [24] of 7.92%. The viability, T/C [25] was 61.8%, the viability, T/C [26] was 49.1% and the viability, T/C [27] was 42.9%. It also gave a viability, T/C [28] of 43.4%, a viability, T/C [29] of 14.4% and a viability, T/C [30] of 8.47%. For the same compound, the viability, T/C [31] was 51.5%, the viability, T/C [32] was 47.3% and the viability, T/C [33] was 30.1%. For the same compound, the viability, T/C [34] was 30.7%, the viability, T/C [35] was 15.5% and the viability, T/C [36] was 7.43%.

Compound NC(=O)C(=Cn1cnc(-c2cc(C(F)(F)F)cc(C(F)(F)F)c2)n1)c1cncnc1 + CNC(=O)c1ccc(Nc2nc(OC3CCCC3)c3c(-c4ccc5nc(C)oc5c4)c[nH]c3n2)c(OC)c1 has an IC50 (second compound 0.0316 µM) of 61.9 nM, an IC50 (second compound 0.1 µM) of under 9.49 nM and an IC50 (second compound 0.316 µM) of 33.2 nM. It also gave an IC50 (second compound 1 µM) of under 9.49 nM, an IC50 (second compound 3.16 µM) of under 9.49 nM and an IC50 (second compound 10 µM) of under 9.49 nM. The viability, T/C (second compound 0.0316 µM, first compound 0.00949 µM) was 64.7%, the viability, T/C (second compound 0.0316 µM, first compound 0.03 µM) was 81% and the viability, T/C (second compound 0.0316 µM, first compound 0.0949 µM) was 36.6%. For the same compound, the viability, T/C (second compound 0.0316 µM, first compound 0.3 µM) was 14%, the viability, T/C (second compound 0.0316 µM, first compound 0.949 µM) was 6.14% and the viability, T/C (second compound 0.0316 µM, first compound 3 µM) was 3.87%. The viability, T/C (second compound 0.1 µM, first compound 0.00949 µM) was 37.9%, the viability, T/C (second compound 0.1 µM, first compound 0.03 µM) was 52.5% and the viability, T/C (second compound 0.1 µM, first compound 0.0949 µM) was 33%. It also gave a viability, T/C (second compound 0.1 µM, first compound 0.3 µM) of 18.4%, a viability, T/C (second compound 0.1 µM, first compound 0.949 µM) of 6.15% and a viability, T/C (second compound 0.1 µM, first compound 3 µM) of 4.5%. The viability, T/C (second compound 0.316 µM, first compound 0.00949 µM) was 52.4%, the viability, T/C (second compound 0.316 µM, first compound 0.03 µM) was 53.7% and the viability, T/C (second compound 0.316 µM, first compound 0.0949 µM) was 23.7%. It also gave a viability, T/C (second compound 0.316 µM, first compound 0.3 µM) of 7.53%, a viability, T/C (second compound 0.316 µM, first compound 0.949 µM) of 3.12% and a viability, T/C (second compound 0.316 µM, first compound 3 µM) of 3.35%. For the same compound, the viability, T/C (second compound 1 µM, first compound 0.00949 µM) was 40.3%, the viability, T/C (second compound 1 µM, first compound 0.03 µM) was 45% and the viability, T/C (second compound 1 µM, first compound 0.0949 µM) was 7.8%. For the same compound, the viability, T/C (second compound 1 µM, first compound 0.3 µM) was 1.43%, the viability, T/C (second compound 1 µM, first compound 0.949 µM) was 1.06% and the viability, T/C (second compound 1 µM, first compound 3 µM) was 0.77%. It also gave a viability, T/C (second compound 3.16 µM, first compound 0.00949 µM) of 37.5%, a viability, T/C (second compound 3.16 µM, first compound 0.03 µM) of 22.1% and a viability, T/C (second compound 3.16 µM, first compound 0.0949 µM) of 4.21%. For the same compound, the viability, T/C (second compound 3.16 µM, first compound 0.3 µM) was 1.37%, the viability, T/C (second compound 3.16 µM, first compound 0.949 µM) was 1.03% and the viability, T/C (second compound 3.16 µM, first compound 3 µM) was 0.18%. The viability, T/C (second compound 10 µM, first compound 0.00949 µM) was 28.5%, the viability, T/C (second compound 10 µM, first compound 0.03 µM) was 24.2% and the viability, T/C (second compound 10 µM, first compound 0.0949 µM) was 3.92%. The viability, T/C (second compound 10 µM, first compound 0.3 µM) was 1%, the viability, T/C (second compound 10 µM, first compound 0.949 µM) was 1.5% and the viability, T/C (second compound 10 µM, first compound 3 µM) was 0.26%.
